Source: the supplement of paper PMC4862054
Several values for one entry are separate records, joined by “and”; a condition that tells them apart may be missing. Identical values can stand only once.

Columns and labels:
Details in all cases: incubation time: 72 h
[1] = test system: MDA-MB-468; assay: normalised viability (% of control), CellTiter-Blue; higher = more viable cells (about 100 = DMSO control)
Method in brief: (§1)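 Plates were quality-checked by Z'-factor and normalised to vehicle (100) and a positive kill control (0). The underlying assay incubated breast cancer cell lines for 72 h on 384-well plates with compound, then added 2.5 µl CellTiter-Blue for 2 h at 37 °C and read at 560/590 nm. The value is normalised viability at a single listed concentration of the series.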

[2] = test system: HDQ-P1; assay: as above
Method in brief: as §1

[3] = test system: SK-BR-3; assay: as above
Method in brief: as §1

[4] = test system: CAL-51; assay: as above
Method in brief: as §1

[5] = test system: MDA-MB-231; assay: as above
Method in brief: as §1

[6] = test system: CAL-120; assay: as above
Method in brief: as §1

[7] = test system: Hs578T; assay: as above
Method in brief: as §1

[8] = test system: CAL-148; assay: as above
Method in brief: as §1

[9] = test system: CAL-85-1; assay: as above
Method in brief: as §1

[10] = test system: MDA-MB-453; assay: as above
Method in brief: as §1

[11] = test system: MFM-223; assay: as above
Method in brief: as §1

[12] = test system: HCC1143; assay: drug sensitivity score (DSS), CellTox Green (DSS (AUC-based score)); higher = stronger drug effect (viability inhibition or cytotoxicity); extreme values may be limits of the assay
Method in brief: (§2)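 In 384-well plates, compound was laid out at 5 concentrations in 10-fold steps over a 10,000-fold range specific to each compound, and breast cancer cell lines were seeded on top in 20 µl suspension for a 72 h incubation. CellTox Green fluorescence and then CellTiter-Glo luminescence were read, and each plate was normalised to 0.1 % DMSO and a positive kill control. The drug sensitivity score was calculated from the area under the fitted dose-response curve.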

[13] = test system: MDA-MB-468; assay: as above
Method in brief: as §2

[14] = test system: MDA-MB-436; assay: as above
Method in brief: as §2

[15] = test system: HDQ-P1; assay: as above
Method in brief: as §2

[16] = test system: CAL-51; assay: as above
Method in brief: as §2

[17] = test system: MDA-MB-231; assay: as above
Method in brief: as §2

[18] = test system: CAL-148; assay: as above
Method in brief: as §2

[19] = test system: DU-4475; assay: as above
Method in brief: as §2

[20] = test system: CAL-85-1; assay: as above
Method in brief: as §2

[21] = test system: MDA-MB-453; assay: as above
Method in brief: as §2

[22] = test system: BT-549; assay: as above
Method in brief: as §2

[23] = test system: BT-474; assay: as above
Method in brief: as §2

[24] = test system: MFM-223; assay: as above
Method in brief: as §2

[25] = test system: HCC1937; assay: as above
Method in brief: as §2

O=NN(CCCl)C(=O)NCCCl [Carmustine]
normalised viability [%]
Details | 3 nM | 10 nM | 30 nM | 100 nM | 1000 nM | 10000 nM
[1] | – | 107 | – | – | 102 | 103
[2] | 120 | – | 128 | 108 | – | –
[3] | – | 100 | – | – | 123 | 96.9
[4] | 108 | – | 107 | 99.4 | – | –
[5] | – | 103 | – | – | 99.1 | 117
[6] | – | 98.9 | – | – | 83 | 82.5
[7] | – | 114 | – | – | 95.3 | 115
[8] | 94.5 | – | 96.7 | 97.5 | – | –
[9] | 95.1 | – | 88.9 | 96.6 | – | –
[10] | 109 | – | 105 | 110 | – | –
[11] | – | 93.1 | – | – | 94.6 | 103

Details | drug sensitivity score
[12] | 0
[13] | 0
[14] | 0
[15] | 0
[16] | 0
[17] | 0
[18] | 0
[19] | 0
[20] | 0
[21] | 0
[22] | 0
[23] | 0
[24] | 0
[25] | 0

CC(=O)O[C@@]12CO[C@@H]1C[C@H](O)[C@@]1(C)C(=O)[C@H](O)C3=C(C)[C@@H](OC(=O)[C@H](O)[C@@H](NC(=O)OC(C)(C)C)c4ccccc4)C[C@@](O)([C@@H](OC(=O)c4ccccc4)[C@H]21)C3(C)C [Docetaxel]
Details | normalised viability
[1], 1 nM | 69.7% and 68.9%
[1], 100 nM | 53% and 46.7%
[1], 1000 nM | 46.3% and 52.4%
[2], 0.3 nM | 86.7% and 84.7%
[2], 3 nM | 58.6% and 72.4%
[3], 1 nM | 85.7% and 86.8%
[3], 100 nM | 19% and 14.4%
[3], 1000 nM | 18.3% and 14.1%
[4], 0.3 nM | 112% and 93.8%
[4], 3 nM | 67.8% and 60.9%
[4], 10 nM | 45.5% and 33.4%
[5], 1 nM | 83% and 72.7%
[5], 100 nM | 17% and 21.6%
[5], 1000 nM | 21.6% and 21%
[6], 1 nM | 84.9% and 81.7%
[6], 100 nM | 25% and 23.5%
[6], 1000 nM | 25.8% and 23.3%
[7], 1 nM | 69% and 63.9%
[7], 100 nM | 11.7% and 12.4%
[7], 1000 nM | 12.3% and 9.74%
[8], 0.3 nM | 97.3% and 89.1%
[8], 3 nM | 41.6% and 29.8%
[8], 10 nM | 21.9% and 19.9%
[9], 0.3 nM | 96.7% and 101%
[9], 3 nM | 56% and 56.9%
[9], 10 nM | 36.1% and 35.2%
[10], 0.3 nM | 121% and 107%
[10], 3 nM | 48.1% and 57.8%
[10], 10 nM | 39.6% and 31.9%
[11], 1 nM | 84.9% and 81.8%
[11], 100 nM | 43.6% and 47.1%
[11], 1000 nM | 47.8% and 41.5%

Details | drug sensitivity score
[12] | 5.08
[13] | 0
[14] | 0
[15] | 6.92
[16] | 26.2
[17] | 31
[18] | 0
[19] | 0
[20] | 25.5
[21] | 0
[22] | 11.4
[23] | 11.8
[24] | 10.2
[25] | 1.03
